Assay results reported in patent US20080009418A1, “Selective Inhibitors” (Alchemia LTD., priority 2004, published 2008).

Legend:
[1] = target: T1, Human δ-opioid (DOP) (Homo sapiens, UniProt P41143); test: Radioligand binding, human δ-opioid (DOP) membranes, FlashPlate, [3H]-Bremazocine; conditions: compound at 10 μM, [3H]-Bremazocine
T1 construct: purchased Perkin Elmer Biosignal
Method in brief: (§1)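 Cloned human receptor membranes were coated onto FlashPlate wells and incubated with radioligand and compound (added from a 0.5 mM DMSO daughter plate) for 1 hour at room temperature in the dark. Scintillation counting gave percent inhibition, with DMSO defining total and reference ligand defining non-specific binding.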

[2] = target: T2, Human κ-Opioid (KOP) (Homo sapiens, UniProt P41145); test: Radioligand binding, human κ-opioid (KOP) membranes, filtration, [3H]-Diprenorphine; conditions: compound at 10 μM, [3H]-Diprenorphine
T2 construct: purchased Perkin Elmer Biosignal
Method in brief: (§2)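 Filtration binding on cloned human receptor membranes (1 Unit/well), [125I]-Substance P for NK1 and [3H]-Diprenorphine for KOP, 1 h at room temperature. Filters PEI-presoaked, washed with cold 50 mM Tris-HCl pH 7.4, counted by scintillation; percent inhibition calculated, reference ligand defining non-specific binding.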

[3] = target: T3, Human Melanocortin (MC3) (Homo sapiens, UniProt P41968); test: Radioligand binding, human melanocortin MC3 membranes, FlashPlate, [125I]-NDP-αMSH; conditions: compound at 10 μM, [125I]-NDP-αMSH
T3 construct: purchased Perkin Elmer Biosignal
Method in brief: as §1

[4] = target: T4, Human Melanocortin (MC4) (Homo sapiens, UniProt P32245); test: Radioligand binding, human melanocortin MC4 membranes, FlashPlate, [125I]-NDP-αMSH; conditions: compound at 10 μM, [125I]-NDP-αMSH
T4 construct: purchased Perkin Elmer Biosignal
Method in brief: as §1

[5] = target: T5, Human melanocortin (MC5) (Homo sapiens, UniProt P33032); test: Radioligand binding, human melanocortin MC5 membranes, FlashPlate, [125I]-NDP-αMSH; conditions: compound at 10 μM, [125I]-NDP-αMSH
T5 construct: purchased Perkin Elmer Biosignal
Method in brief: as §1

[6] = target: T6, Human melanin-concentrating hormone (MCH1) (Homo sapiens, UniProt Q99705); test: Radioligand binding, human melanin-concentrating hormone MCH1 membranes, FlashPlate, [125I]-S36057; conditions: compound at 10 μM
T6 construct: purchased Perkin Elmer Biosignal
Method in brief: as §1

[7] = target: T7, Human μ-opioid (MOP) (Homo sapiens, UniProt P35372); test: Radioligand binding, human μ-opioid (MOP) membranes, FlashPlate, [3H]-Naloxone; conditions: compound at 10 μM, [3H]-Naloxone
T7 construct: purchased Perkin Elmer Biosignal
Method in brief: as §1

[8] = target: T8, Human neurokinin (NK1) (Homo sapiens, UniProt P25103); test: Radioligand binding, human neurokinin NK1 membranes, filtration, [125I]-Substance P; conditions: compound at 10 μM, [125I]-Substance P
T8 construct: purchased Perkin Elmer Biosignal
Method in brief: as §2

[9] = target: T9, Human neuropeptide Y (NPY-Y1) (Homo sapiens, UniProt P25929); test: Radioligand binding, human neuropeptide Y NPY-Y1 membranes, FlashPlate, [125I]-PYY; conditions: compound at 10 μM, [125I]-PYY
T9 construct: purchased Perkin Elmer Biosignal
T9 sequence (P25929 1-384): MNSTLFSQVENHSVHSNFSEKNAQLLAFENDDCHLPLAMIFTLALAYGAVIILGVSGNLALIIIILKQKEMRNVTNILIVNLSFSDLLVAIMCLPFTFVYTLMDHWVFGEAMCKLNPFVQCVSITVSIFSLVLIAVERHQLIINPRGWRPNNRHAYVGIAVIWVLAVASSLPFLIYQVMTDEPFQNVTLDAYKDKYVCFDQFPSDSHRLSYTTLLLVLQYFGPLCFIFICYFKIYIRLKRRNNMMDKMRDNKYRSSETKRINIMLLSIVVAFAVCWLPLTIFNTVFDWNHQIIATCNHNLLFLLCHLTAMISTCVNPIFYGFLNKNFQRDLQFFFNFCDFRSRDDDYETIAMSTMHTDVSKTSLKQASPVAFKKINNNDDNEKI
Method in brief: as §1

[10] = target: T10, Human opioid (ORL1) (Homo sapiens, UniProt P41146); test: Radioligand binding, human opioid ORL1 membranes, FlashPlate, [125I]-Nociceptin; conditions: compound at 10 μM, [125I]-Nociceptin
T10 construct: purchased Perkin Elmer Biosignal
Method in brief: as §1

[11] = target: T11, Mouse urotensin (mUR2) (Mus musculus, UniProt Q8VIH9); test: Radioligand binding, mouse urotensin mUR2 membranes, FlashPlate, [125I]-Urotensin II; conditions: compound at 10 μM, [125I]-Urotensin II
T11 construct: purchased Perkin Elmer Biosignal
T11 sequence (Q8VIH9 1-385): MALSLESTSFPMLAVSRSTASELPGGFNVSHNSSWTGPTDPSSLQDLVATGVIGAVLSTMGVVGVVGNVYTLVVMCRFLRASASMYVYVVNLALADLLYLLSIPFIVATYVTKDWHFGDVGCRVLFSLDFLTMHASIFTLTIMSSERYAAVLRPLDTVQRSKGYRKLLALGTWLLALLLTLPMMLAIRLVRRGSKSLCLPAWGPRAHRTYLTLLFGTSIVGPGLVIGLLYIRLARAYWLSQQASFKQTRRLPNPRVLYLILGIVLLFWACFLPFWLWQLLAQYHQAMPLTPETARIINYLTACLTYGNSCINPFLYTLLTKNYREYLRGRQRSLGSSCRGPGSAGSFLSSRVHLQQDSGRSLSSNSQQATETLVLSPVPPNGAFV
Method in brief: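 Cloned mouse urotensin (mUR2) receptor membranes from Perkin Elmer Biosignal were immobilized in FlashPlate microplates using a proprietary coating. Each well got 19.5 μl buffer, then 0.5 μl of DMSO, reference ligand, or compound. Adding 5 μl of [125I]-Urotensin II, diluted to 5× final concentration in binding buffer, started binding. Plates were sealed with TopSeal-A and incubated 1 hour at room temperature in the dark. Wells were counted for 30 seconds each on a TopCount after a 60-second delay, and percentage inhibition was calculated.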

T2 sequence (P41145 whole entry): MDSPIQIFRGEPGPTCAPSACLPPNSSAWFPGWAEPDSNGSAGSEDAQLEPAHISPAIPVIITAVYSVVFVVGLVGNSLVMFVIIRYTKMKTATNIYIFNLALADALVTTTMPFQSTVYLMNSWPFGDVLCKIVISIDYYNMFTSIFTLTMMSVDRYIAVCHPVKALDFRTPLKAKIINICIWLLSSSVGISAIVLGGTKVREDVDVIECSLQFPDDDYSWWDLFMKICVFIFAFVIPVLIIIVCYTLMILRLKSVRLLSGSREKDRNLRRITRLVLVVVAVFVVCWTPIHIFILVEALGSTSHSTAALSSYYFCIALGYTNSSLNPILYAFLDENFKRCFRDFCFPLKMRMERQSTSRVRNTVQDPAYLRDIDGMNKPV
T6 sequence (Q99705 whole entry): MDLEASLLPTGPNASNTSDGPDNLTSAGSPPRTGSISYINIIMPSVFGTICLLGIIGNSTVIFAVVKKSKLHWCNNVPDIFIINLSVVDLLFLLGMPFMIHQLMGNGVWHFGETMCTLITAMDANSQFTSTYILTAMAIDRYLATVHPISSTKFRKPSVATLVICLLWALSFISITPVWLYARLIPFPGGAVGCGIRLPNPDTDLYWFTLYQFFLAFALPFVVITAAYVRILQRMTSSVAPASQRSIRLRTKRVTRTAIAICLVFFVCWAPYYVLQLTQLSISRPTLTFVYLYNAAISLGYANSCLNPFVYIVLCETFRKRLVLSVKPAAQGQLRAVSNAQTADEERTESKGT
T3 sequence (P41968 whole entry): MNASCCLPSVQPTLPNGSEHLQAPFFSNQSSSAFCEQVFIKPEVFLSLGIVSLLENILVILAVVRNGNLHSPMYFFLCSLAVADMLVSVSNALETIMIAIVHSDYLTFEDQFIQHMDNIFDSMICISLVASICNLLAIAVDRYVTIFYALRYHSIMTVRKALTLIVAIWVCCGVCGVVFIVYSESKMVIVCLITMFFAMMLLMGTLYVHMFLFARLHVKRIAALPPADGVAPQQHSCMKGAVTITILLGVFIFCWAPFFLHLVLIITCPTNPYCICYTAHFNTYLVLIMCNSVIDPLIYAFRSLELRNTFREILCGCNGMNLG
T4 sequence (P32245 whole entry): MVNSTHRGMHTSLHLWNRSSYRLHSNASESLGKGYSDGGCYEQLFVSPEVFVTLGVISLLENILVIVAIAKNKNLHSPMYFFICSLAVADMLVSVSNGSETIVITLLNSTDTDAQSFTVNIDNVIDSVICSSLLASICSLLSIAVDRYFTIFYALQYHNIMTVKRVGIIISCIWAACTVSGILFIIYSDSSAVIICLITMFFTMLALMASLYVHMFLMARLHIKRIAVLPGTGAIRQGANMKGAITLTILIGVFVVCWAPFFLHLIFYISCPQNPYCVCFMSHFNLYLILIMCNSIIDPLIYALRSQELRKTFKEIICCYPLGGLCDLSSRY
T8 sequence (P25103 whole entry): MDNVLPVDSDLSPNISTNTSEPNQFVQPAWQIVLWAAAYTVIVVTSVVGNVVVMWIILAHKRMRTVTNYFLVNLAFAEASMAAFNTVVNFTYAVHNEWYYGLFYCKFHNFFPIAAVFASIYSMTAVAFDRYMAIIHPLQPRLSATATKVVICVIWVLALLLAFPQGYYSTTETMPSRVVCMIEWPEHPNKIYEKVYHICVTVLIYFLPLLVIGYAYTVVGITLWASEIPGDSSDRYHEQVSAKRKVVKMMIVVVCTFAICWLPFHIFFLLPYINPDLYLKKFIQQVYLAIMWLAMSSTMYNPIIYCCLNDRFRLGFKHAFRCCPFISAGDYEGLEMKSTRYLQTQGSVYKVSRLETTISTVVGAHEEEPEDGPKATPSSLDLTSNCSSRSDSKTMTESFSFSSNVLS
T1 sequence (P41143 whole entry): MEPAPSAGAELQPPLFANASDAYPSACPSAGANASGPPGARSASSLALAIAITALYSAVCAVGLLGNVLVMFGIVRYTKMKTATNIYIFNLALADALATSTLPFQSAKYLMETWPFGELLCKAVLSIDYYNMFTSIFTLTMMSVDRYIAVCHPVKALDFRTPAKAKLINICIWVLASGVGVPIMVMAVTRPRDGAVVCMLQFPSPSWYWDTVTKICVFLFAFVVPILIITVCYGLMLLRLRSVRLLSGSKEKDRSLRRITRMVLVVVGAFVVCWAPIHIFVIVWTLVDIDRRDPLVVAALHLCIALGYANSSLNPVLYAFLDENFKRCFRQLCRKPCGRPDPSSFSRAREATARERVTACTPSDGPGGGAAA
T7 sequence (P35372 whole entry): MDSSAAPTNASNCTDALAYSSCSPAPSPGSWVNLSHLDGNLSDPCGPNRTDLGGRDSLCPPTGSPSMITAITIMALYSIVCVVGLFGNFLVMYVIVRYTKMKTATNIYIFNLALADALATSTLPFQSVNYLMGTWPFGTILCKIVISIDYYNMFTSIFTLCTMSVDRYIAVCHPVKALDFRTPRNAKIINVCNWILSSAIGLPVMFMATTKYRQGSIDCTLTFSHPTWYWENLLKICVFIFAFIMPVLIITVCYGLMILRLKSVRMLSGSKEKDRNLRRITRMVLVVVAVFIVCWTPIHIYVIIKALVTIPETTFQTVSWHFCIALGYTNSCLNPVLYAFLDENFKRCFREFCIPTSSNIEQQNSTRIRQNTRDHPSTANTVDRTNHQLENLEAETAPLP
T5 sequence (P33032 whole entry): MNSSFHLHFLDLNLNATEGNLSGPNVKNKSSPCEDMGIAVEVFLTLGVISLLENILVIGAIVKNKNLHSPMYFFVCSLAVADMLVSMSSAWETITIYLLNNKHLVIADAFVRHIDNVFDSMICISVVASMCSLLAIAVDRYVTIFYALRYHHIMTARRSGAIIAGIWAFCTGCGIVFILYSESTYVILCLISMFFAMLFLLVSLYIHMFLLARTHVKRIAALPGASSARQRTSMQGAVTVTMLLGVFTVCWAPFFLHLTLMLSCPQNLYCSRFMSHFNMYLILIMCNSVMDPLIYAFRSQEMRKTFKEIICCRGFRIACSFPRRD
T10 sequence (P41146 whole entry): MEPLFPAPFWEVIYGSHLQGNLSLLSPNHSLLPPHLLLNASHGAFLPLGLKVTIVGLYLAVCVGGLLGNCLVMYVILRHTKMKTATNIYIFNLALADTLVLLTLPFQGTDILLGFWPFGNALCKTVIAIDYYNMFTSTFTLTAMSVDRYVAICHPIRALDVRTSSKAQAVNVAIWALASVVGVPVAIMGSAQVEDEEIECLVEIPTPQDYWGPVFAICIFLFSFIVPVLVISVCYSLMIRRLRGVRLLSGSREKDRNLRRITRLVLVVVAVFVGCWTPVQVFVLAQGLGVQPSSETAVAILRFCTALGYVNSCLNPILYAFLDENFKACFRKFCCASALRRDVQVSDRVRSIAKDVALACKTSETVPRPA

CO[C@H]1[C@H](O)[C@@H](COCc2ccc(Cl)cc2)OC(OCCc2ccccc2)[C@@H]1NC(=O)CCCN (stereo partly drawn) [compound 121]
A1 radioligand binding, percentage inhibition [1]: − (“−” indicates less than 50% inhibition at 10 μM)
A2 radioligand binding, percentage inhibition [2]: − (“−” indicates less than 50% inhibition at 10 μM)
A3 radioligand binding, percentage inhibition [3]: − (“−” indicates less than 50% inhibition at 10 μM)
A4 radioligand binding, percentage inhibition [4]: − (“−” indicates less than 50% inhibition at 10 μM)
A5 radioligand binding, percentage inhibition [5]: + (“+” indicates greater than 50% inhibition at 10 μM)
A6 radioligand binding, percentage inhibition ([6]; [125I]-S36057): − (“−” indicates less than 50% inhibition at 10 μM)
A7 radioligand binding, percentage inhibition [7]: − (“−” indicates less than 50% inhibition at 10 μM)
A8 radioligand binding, percentage inhibition [8]: + (“+” indicates greater than 50% inhibition at 10 μM)
A9 radioligand binding, percentage inhibition [9]: − (“−” indicates less than 50% inhibition at 10 μM)
A10 radioligand binding, percentage inhibition [10]: − (“−” indicates less than 50% inhibition at 10 μM)
A11 radioligand binding, percentage inhibition [11]: − (“−” indicates less than 50% inhibition at 10 μM)

CSC1OC(COCc2ccc(-c3ccccc3)cc2)C(O)C(OCc2ccccc2)C1NC(=O)CCNC(=N)N (stereo not drawn) [compound 257]
A1: inhibition of radioligand binding ([1]; FlashPlate): − (“−” indicates less than 50% inhibition at 10 μM)
A2: inhibition of radioligand binding ([2]; filtration): − (“−” indicates less than 50% inhibition at 10 μM)
A3: inhibition of radioligand binding ([3]; FlashPlate): − (“−” indicates less than 50% inhibition at 10 μM)
A4: inhibition of radioligand binding ([4]; FlashPlate): + (“+” indicates greater than 50% inhibition at 10 μM)
A5: inhibition of radioligand binding ([5]; FlashPlate): − (“−” indicates less than 50% inhibition at 10 μM)
A6: inhibition of radioligand binding ([6]; [125I]-S36057, FlashPlate): − (“−” indicates less than 50% inhibition at 10 μM)
A7: inhibition of radioligand binding ([7]; FlashPlate): − (“−” indicates less than 50% inhibition at 10 μM)
A8: inhibition of radioligand binding ([8]; filtration): + (“+” indicates greater than 50% inhibition at 10 μM)
A9: inhibition of radioligand binding ([9]; FlashPlate): − (“−” indicates less than 50% inhibition at 10 μM)
A10: inhibition of radioligand binding ([10]; FlashPlate): − (“−” indicates less than 50% inhibition at 10 μM)
A11: inhibition of radioligand binding ([11]; FlashPlate): − (“−” indicates less than 50% inhibition at 10 μM)

NCCC(=O)NC1C(OCc2ccccc2)OC(COCc2ccccc2)C(O)C1OCc1ccc(Cl)cc1 (stereo not drawn) [compound 365]
A1: inhibition of radioligand binding, human δ-opioid (DOP) [1]: − (“−” indicates less than 50% inhibition at 10 μM)
A2: inhibition of radioligand binding, human κ-opioid (KOP) [2]: − (“−” indicates less than 50% inhibition at 10 μM)
A3: inhibition of radioligand binding, human melanocortin (MC3) [3]: − (“−” indicates less than 50% inhibition at 10 μM)
A4: inhibition of radioligand binding, human melanocortin (MC4) [4]: − (“−” indicates less than 50% inhibition at 10 μM)
A5: inhibition of radioligand binding, human melanocortin (MC5) [5]: − (“−” indicates less than 50% inhibition at 10 μM)
A6: inhibition of radioligand binding, human melanin-concentrating hormone (MCH1) ([6]; [125I]-S36057): − (“−” indicates less than 50% inhibition at 10 μM)
A7: inhibition of radioligand binding, human μ-opioid (MOP) [7]: − (“−” indicates less than 50% inhibition at 10 μM)
A8: inhibition of radioligand binding, human neurokinin (NK1) [8]: + (“+” indicates greater than 50% inhibition at 10 μM)
A9: inhibition of radioligand binding, human neuropeptide Y (NPY-Y1) [9]: − (“−” indicates less than 50% inhibition at 10 μM)
A10: inhibition of radioligand binding, human opioid (ORL1) [10]: − (“−” indicates less than 50% inhibition at 10 μM)
A11: inhibition of radioligand binding, mouse urotensin (mUR2) [11]: − (“−” indicates less than 50% inhibition at 10 μM)
